Patent US20010025105A1, “Certain substituted 1-aryl-3-piperazine-1'-yl propanones” (Molecular Geriatarics Corporation, priority 1997, published 2001)
pIC50: −log10 of the molar value. Where a name gives a salt, the structure may show the parent alone. Read-outs that look alike come from different tables or passages of the source.

What was measured:
Candida albicans SRI 523 = assay: Agar disc diffusion assay; assay type: cell-based; conditions: 240 ug/disc, about 24 hr at 37° C.
Method: (§1) The activity of the compounds is determined using the following assay. The compound is dissolved in DMSO at a concentration of 6 mg/ml and then diluted with water to a final concentration of 3 mg/ml in 50% DMSO (% DMSO was shown not to be inhibitory to the test organisms). An aliquot (0.08 ml) of each drug solution was transferred to filter paper discs (12.7 mm diameter, Scmeicherand Schuell) for use in the agar diffusion assay. The concentration of each drug on the filter paper disc was 240 ug/disc. The test organisms included the following: Gram-positive aerobes (Staphylococcus aureus SRI 1323, Streptococcus pneumoniae SRI 1167); Gram-negative aerobe (Proteus vulgaris SRI 180); and the yeast Candida albicans SRI 523. An agar disc diffusion assay was used to evaluate the antimicrobial activity of the test compounds. Briefly, cultures were prepared from 16-20 hr agar slant cultures by inoculating in physiological saline to a turbidity equivalent to a #0.5 McFarland turbidity standard for the bacteria and a #3 McFarland standard for C. albicans. The surface of Mueller-Hinton agar (15×100 mm plates, mm) were evenly inoculated with each standardized culture using a cotton swab. Filter paper discs containing the drug concentration listed above were then placed on the inoculated agar plates along with a disc containing the solvent used to dissolve each drug. The plates were incubated at 37° C. for about 24 hr and the diameters of the zones of inhibition measured with a vernier caliper. Positive control drugs consisted of streptomycin for use with the bacterial strains and 5-fluorocytosine for use with C. albicans. The positive control drugs were assayed as described above for the compounds of the present invention using the same concentration.

[1] = test system: TG3 immunoreactivity in OKA treated MSN1a cells; assay: MSN1a cell culture model, ELISA with TG3 antibody, okadaic acid treated cells; assay type: cell-based, human; conditions: 1 μM OKA, 2 hrs at 37° C., read-out: IC50 for inhibition of TG3 immunoreactivity in OKA treated MSN1a cells
Method: This assay can thus be used to determine whether a drug is capable of preventing or intervening in AD by attenuating the production of abnormally phosphorylated paired helical filament epitopes associated with AD. To determine whether a drug is capable of preventing or intervening in AD activity, the MSN1a cells containing tau and associated proteins are treated with OKA capable of greatly increasing immunoreactivity of the MSN1a cells with AD specific monoclonal antibodies. Then, either prior to or concomitantly with OKA treatment, a compound of the present invention is added to the culture. If the compound prevents the induction of the AD epitopes in the MSN1a cells treated with OKA, then it is said to have anti-AD activity. If the AD-specific antibodies are highly reactive with the neuroblastoma cells following OKA treatment in the presence of compound, then the compound is said to be ineffectual against AD.
The MSN1a human neuroblastoma line was subcloned from a population of MSN cells obtained from the laboratory of Dr. Peter Davies (Albert Einstein College of Medicine, New York, N.Y.). Cells were grown and maintained in flasks in RPMI 1640 medium, supplemented with 15% fetal calf serum, 100 U/ml penicillin, 100 U/ml Streptomycin, 0.5 ug/ml fungizone under 7.5% CO2 at 37° C.
Stock solutions of drugs were prepared by dissolving the anhydrous powders to final concentrations of either 10 or 20 mM in 50% aqueous or 100% dimethyl sulfoxide (DMSO), respectively. Working solutions of drugs were prepared by dilution of the stock solutions with Kreb's Ringer in Hepes buffer (KRH) (128 mM NaCl, 5 mM KCl, 2.5 mM CaCl2 1.2 mM MgSO4, 1 mM Na2HPO4, 10 mM dextrose, 20 mM Hepes, pH 7.4). OKA is maintained as a 1 mM stock solution in DMSO prior to dilution to 4 μM in KRH.
MSN cells grown in 225 cm^2 flasks are removed from the incubator, their medium decanted and replaced with 50 ml pre-warmed KRH. The cells are harvested by scraping prior to sedimentation at 1000 rpm for 5 min. The supernatants are discarded and the cell pellets are resuspended, the cells counted and diluted to a density of 2×10^4 cells/[…]. The cells are then plated in a 96 well plate at 50 μl/well and 25 μl of 4 μM OKA and 25 μl of drug are then added to the appropriate wells; the entire 96 well plate is then incubated for 2 hrs at 37° C. Depending on the dilution of drug added, this yields individual wells containing 1 μM OKA, 0-64 μM drug and 2×10^4 cells in 0.26% DMSO in KRH. The incubation is terminated by the addition of 20 μl of 6X extraction buffer and immediate freezing at −80° C. for at least one hr. The 6X extraction buffer contains: 25 mM Tris-HCl, pH 7.6, 150 mM NaCl, 5 mM EDTA, 24 mM β-glycerol phosphate, 10 μg/ml APMSF (4-amidinophenylmethane-sulfonyl flouride), and 2.5 μg/ml each of leupeptin, aprotinin, and pepstatin. The plates are thawed in a 37° C. water bath and 20 μl of cell lysate is added to a replica well in an ELISA plate that already contains 80 μl of coating buffer (15 mM Na2CO3 and 35 mM NaHCO3, pH 9.6). The plates are allowed to coat overnight at 4° C. The plates are washed four times with deionized water and then blocked for 30 min at 37° C. with 200 μl/well pre-warmed 1% bovine serum albumin in 10 mM Tris-HCl, pH 7.4, 150 mM NaCl, 3 mM NaN3 (BSA-TBS). After the blocking solution is removed, 100 μl/well of an appropriate dilution of pre-warmed primary antibody (eg., TG3 or PHF-1) in BSA-TBS is added and incubated at 37° C. for 30 min. Incubation is terninated by washing four times in deionized water at which time 100 μl of an appropriate dilution of pre-warmed secondary antibody (conjugated to alkaline phosphatase) in BSA-TBS is added to each well in the ELISA plate. Incubation is performed for 30 min at 37° C. followed by washing 4 times with deionized water. […] of prewarmed chromogenic substrate (1 mg/mnl p-nitrophenyl phosphate in 10% diethanolamine, 3 mM NaN3, 0.5 mM MgCl2, pH 9.8) is added and the plate incubated for 30 min at 37° C. […]

[2] = test system: microtubule cytoskeleton of human CG neuroblastoma cells; assay: Antimicrotubule activity, tubulin immunofluorescence microscopy; assay type: cell-based; conditions: 2 hr at 37° C., read-out: Concentration where microtubule destabilization occurs
Method: The compounds of the invention according to formula I are effective in destabilizing microtubules, thus are useful in treating certain neoplastic diseases. Indirect immunofluorescence microscopy using the monoclonal antibodies to tubulin is used herein to determine the activity of the compounds of this invention in promoting depolymerization of the microtubule cytoskeleton in cultured cells. The following assay was employed.
Cultured human CG neuroblastoma cells were seeded 1:3 from confluent cultures onto sterile 11×22 mm coverslips in 6 well tissue culture plates 16 hr prior to treatment. The following day, the tissue culture medium is removed and the cells are exposed to various concentrations of compounds of this invention in Krebs Ringer Hepes (KRH) buffer containing a final concentration of 0.5% DMSO as carrier. Incubations were performed at 37° C. in a humidified 5% CO2 atmosphere for 2 hr. After incubation, the cells were fixed in 3% TEM grade formaldehyde in PBS for 45 min at room temperature.
To visualize the effects of the compounds of the invention on the microtubule cytoskeleton, the cells were processed for tubulin immunofluorescence. Briefly, the cells were permeabilized in 0.5% Triton-X 100 in PBS for 5 min. The cells were washed 2× with PBS and aldehydes reduced using 0.5 mg/ml NaBH4 in PBS for 5 min. Subsequently, the cells were blocked for 10 min in 1.5% BSA and 1.5% nonfat dry milk in PBS (blocking solution, BS) for 10 min. The cells were then incubated for 30 min at 37° C. with the monoclonal antibody Tu27B which recognizes b-tubulin (dilution 1:20 in BS). Subsequently, the cells were washed 2× in PBS and once in BS. The cells were then incubated for 30 min at 37° C. with sheep antimouse IgG conjugated to FITC. After incubation, the cells were washed 2× in PBS and once in BS and incubated for 30 min at 37° C. with rabbit antisheep IgG conjugated to FITC. The cells were rinsed in PBS, counterstained with Hoechst 33285 in PBS (1 μg/ml), and rinsed in PBS. The coverslips were mounted in 9:1 glycerol:PBS containing 1 mg/ml p-phenylenediamine and sealed with nail polish.
The cells were viewed using a Jenalumar epifluorescence microscope equipped with the proper filters for Fluorescein Isothiocyanate (FITC) excitation and emission. Lack of effect of a compound is evidenced by the presence of an intact microtubule network in interphase cells, or a mitotic spindle in dividing cells. Antineoplastic compounds of the invention at effective doses result in the disappearance of microtubules in both interphase and mitotic cells.

Proteus vulgaris SRI 180 = assay: Agar disc diffusion assay; assay type: cell-based; conditions: 240 ug/disc, about 24 hr at 37° C., 0 = no measurable zone
Method: as §1

[3] = test system: Staphylococcus aureus SRI 1323; assay: Agar disc diffusion assay; assay type: cell-based; conditions: 240 ug/disc, about 24 hr at 37° C.
Method: as §1

[4] = test system: Streptococcus pneumoniae SRI 1167; assay: Agar disc diffusion assay; assay type: cell-based; conditions: 240 ug/disc, about 24 hr at 37° C., + = zone too large to measure
Method: as §1

Nc1nc(=O)[nH]cc1F [5-fluorocytosine, reference compound]
zone of inhibition at 240 µg/disc (Candida albicans SRI 523; Candida albicans, SRI523, read-out: Diameter of the zone of inhibition, C. albicans): 33.5 mm

O=C(CCN1CCN(Cc2ccccc2)CC1)c1cc2ccccc2o1 [Example 10, 1-(Benzofur-2″-yl)-3-(4′-benzyl-1′-piperazinyl)-1-propanone dihydrochloride]
pIC50 ([1]; Homo sapiens): 5.22
minimal effective concentration ([2]; Neuroblastoma cell): 20 µM

Cl.Cl.O=C(CCN1CCN(Cc2ccccc2)CC1)c1ccc(F)c(Br)c1 [Example 25, 1-(p-Fluoro-m-bromophenyl)-3-(4′-benzyl-1′-piperazinyl)-1-propanone dihydrochloride]
Diameter of the zone of inhibition, C. albicans (Candida albicans SRI 523): 26.0 mm
Diameter of the zone of inhibition, P. vulgaris (Proteus vulgaris SRI 180): 16.0 mm
Diameter of the zone of inhibition, S. aureus [3]: 27.5 mm
Diameter of the zone of inhibition, S. pneumoniae [4]: 36.3 mm

Cl.Cl.N#Cc1cccc(C(=O)CCN2CCN(Cc3ccccc3)CC2)c1 [Example 60, 1-(m-Cyanophenyl)-3-(4′-benzyl-1′-piperazinyl)-1-propanone dihydrochloride]
minimal effective concentration [2]: 20 µM

O=C(CCN1CCN(C(=O)c2ccccc2F)CC1)c1cccs1 [Example 70, 1-(2″-Thienyl)-3-[4′-(o-fluorobenzoyl)-1′-piperazinyl]-1-propanone hydrochloride]
minimal effective concentration ([2]; Neuroblastoma cell): 20 µM

Cl.Cl.O=C(CCN1CCN(Cc2ccccc2)CC1)c1csc([N+](=O)[O-])c1 [Example 80, 1-(5″-Nitro-3″-thienyl)-3-(4′-benzyl-1′-piperazinyl)-1-propanone dihydrochloride]
pIC50 [1]: 5.24
Diameter of the zone of inhibition, C. albicans (Candida albicans SRI 523): 14.5 mm
Diameter of the zone of inhibition, P. vulgaris (Proteus vulgaris SRI 180): 13.8 mm
Diameter of the zone of inhibition, S. aureus [3]: 17.2 mm

Cl.Cl.N#Cc1ccc(C(=O)CCN2CCN(Cc3ccccc3)CC2)s1 [Example 85, 1-(5″-Cyano-2″-thienyl)-3-(4′-benzyl-1′-piperazinyl)-1-propanone dihydrochloride]
minimal effective concentration [2]: 20 µM

Cl.Cl.O=C(CCN1CCN(Cc2ccccc2)CC1)c1cc([N+](=O)[O-])c(Cl)s1 [Example 95, 1-(5″-Chloro-4″-nitro-2″-thienyl)-3-(4′-benzyl-1′-piperazinyl)-1-propanone dihydrochloride]
pIC50 [1]: 5.55
minimal effective concentration [2]: 20 µM

Cl.Cl.O=C(CCN1CCN(Cc2ccccc2)CC1)c1conc1-c1ccccc1 [Example 112, 1-(3″-Phenylisoxazol-4″-yl)-3-(4′-benzyl-1′-piperazinyl)-1-propanone dihydrochloride]
minimal effective concentration [2]: 20 µM

Cl.Cl.O=C(CCN1CCN(Cc2ccccc2)CC1)c1ccc(Nc2ccc([N+](=O)[O-])cc2[N+](=O)[O-])cc1 [Example 113]
minimal effective concentration [2]: 20 µM

[H]/N=C(/N)N[C@H]1[C@H](O)[C@@H](O)[C@H](O[C@@H]2O[C@@H](C)[C@](O)(C=O)[C@H]2O[C@@H]2O[C@@H](CO)[C@H](O)[C@@H](O)[C@@H]2NC)[C@@H](N/C(N)=N\[H])[C@@H]1O [streptomycin, reference compound]
zone of inhibition at 240 µg/disc (Proteus vulgaris SRI 180; Proteus vulgaris, SRI180, read-out: Diameter of the zone of inhibition, P. vulgaris): 37.6 mm
zone of inhibition at 240 µg/disc ([3]; Staphylococcus aureus, SRI1323, read-out: Diameter of the zone of inhibition, S. aureus): 28.4 mm
zone of inhibition at 240 µg/disc ([4]; Streptococcus pneumoniae, SRI1167, read-out: Diameter of the zone of inhibition, S. pneumoniae): 39.8 mm

CC[C@]1(O)C[C@@H]2CN(CCc3c([nH]c4ccccc34)[C@@](C(=O)OC)(c3cc4c(cc3OC)N(C)[C@H]3[C@@](O)(C(=O)OC)[C@H](OC(C)=O)[C@]5(CC)C=CCN6CC[C@]43[C@@H]65)C2)C1 [vinblastine, reference compound]
minimal effective concentration ([2]; Neuroblastoma cell): 0.05 µM
